Data taken from US9328138B2 (priority 2011, dated 2016).
Counter-ions that a name gives are not always drawn.

Assays:
[1] = biological target: HCV NS3 protease genotype 3a (3A-1) (Hepatitis C virus genotype 3a, UniProt Q81258); assay: HCV NS3 protease time-resolved fluorescence (TRF) assay, genotype 3a; type: biochemical; conditions: Ki 3a
In short: (§1)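 IC50 values derive from 4-parameter fitting of TRF signal after a 6 h room-temperature cleavage of 25 nM peptide substrate by NS3/NS4A that had been pre-incubated 10 min with compound.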

[2] = biological target: T1, HCV genotype 1b (BK) NS3 modified enzyme with a R155K mutation (Hepatitis C virus genotype 1b, UniProt P26663, R1181K); assay: HCV NS3 protease time-resolved fluorescence (TRF) assay, genotype 1b R155K; type: biochemical; conditions: Ki 1b R155K
T1 construct: HCV genotype 1b (BK) NS3 modified enzyme
In short: as §1

[3] = genotype 1b (BK) NS3 R155K, single value
[4] = first of two values printed in the cell (not explained)
[5] = second of two values printed in the cell (not explained)

With `C=C[C@@H]1C[C@]1(NC(=O)[C@@H]1C[C@@H]2CN1C(=O)[C@H](C1CCCC1)NC(=O)O[C@@H]1CCC[C@H]1CC/C=C/Cc1c(nc3ccccc3c1OCCCn1cnnc1)O2)C(=O)NS(=O)(=O)C1(C)CC1` [Example 53, (3aR,7S,10S,12R,21E,24aS)-7-cyclopentyl-N-[(1R,2S)-2-ethenyl-1-{[(1-methylcyclopropyl)sulfonyl]carbamoyl}cyclopropyl]-5,8-dioxo-19-[3-(4H-1,2,4-triazol-4-yl)propoxy]-1,2,3,3a,5,6,7,8,11,12,20,23,24,24a-tetra decahydro-10H-9,12-methanocyclopenta[18,19][1,10,3,6] dioxadiazacyclononadecino[11,12-b] quinoline-10-carboxamide] the Ki [1] was 0.55 nM and the Ki [2, 3] was 0.11 nM.

`CC1(S(=O)(=O)NC(=O)[C@@]23C[C@H]2/C=C\CCCCC[C@@H]2NC(=O)O[C@@H]4C[C@H]4CCC/C=C/c4c(nc5ccccc5c4OCCCN4CCOCC4)O[C@@H]4C[C@@H](C(=O)N3)N(C4)C2=O)CC1` [Example 298, (1aR,5S,11Z,12aS,13aR,16S,19R,27E, 31aR)-N-[(1-methylcyclopropyl)sulfonyl]-26-[3-(morpholin-4-yl)propoxy]-3,15,33-trioxo-1,1a,3,4,5,6,7,8,9,10,12a,13,15,16,18,19,29, 30,31,31a-icosahydro-5,17:16,19-dimethanodicyclopropa[12,13:28,29][1,20,3,14,17]dioxatriazacyclononacosino[21,22-b]quinoline-13a(14H)-carboxamide] was tested, and the Ki [1] was 4 nM and the Ki [2, 3] was 0.49 nM.

Work on `C=C[C@@H]1C[C@]1(NC(=O)[C@@H]1C[C@@H]2CN1C(=O)[C@H](C(C)(C)C)NC(=O)O[C@@H]1C[C@H]1CCCCCc1c(nc3ccccc3c1OCCCNCCN1CCCC1=O)O2)C(=O)NS(=O)(=O)C1(C)CC1` [Example 197, (1aR,5S,8S,10R,22aR)-5-tert-butyl-N-[(1R,2S)-2-ethenyl-1-{[(1-methylcyclopropyl)sulfonyl]carbamoyl}cyclopropyl]-3,6-dioxo-17-(3-{[2-(2-oxopyrrolidin-1-yl)ethyl]amino}propoxy)-1,1a,3,4,5,7,9,10, 18,19,20,21,22,22a-tetra decahydro-8H-7,10-methanocyclopropa[18,19][1,10,3,6] dioxdiazacyclononadecino[11,12-b] quinoline-8-carboxamide] yielded a Ki [1] of 0.31 nM and a Ki [2, 3] of 0.027 nM.

`C=C[C@@H]1C[C@]1(NC(=O)[C@@H]1C[C@@H]2CN1C(=O)[C@H](C(C)(C)C)NC(=O)O[C@@H]1C[C@H]1CCCCCc1c(nc3ccccc3c1OC1CNC1)O2)C(=O)NS(=O)(=O)C1(C)CC1` [Example 222, (1aR,5S,8S,10R,22aR)-17-(azetidin-3-yloxy)-5-tert-butyl-N-[(1R,2S)-2-ethenyl-1-{[(1-methylcyclopropyl)sulfonyl]carbamoyl}cyclopropyl]-3,6-dioxo-1,1a,3,4,5,6,9,10,18,19,20,21,22,22a-tetradecahydro-8H-7,10-methanocyclopropa[18,19][1,10,3,6]dioxadiazacyclononadecino[11,12-b]quinoline-8-carboxamide] gave a Ki [1] of 0.44 nM and a Ki [2, 3] of 0.045 nM.

`CC[C@@H]1C[C@]1(NC(=O)[C@@H]1C[C@@H]2CN1C(=O)[C@H](C1CCCC1)NC(=O)O[C@@H]1CCC[C@H]1CCCCCc1c(nc3ccccc3c1OC)O2)C(=O)NS(=O)(=O)C1CC1` [Example 27, (3aR,7S,10S,12R,24aR)-7-cyclo pentyl-N-{(1R,2R)-1-[(cyclopropylsulfonyl)carbamoyl]-2-ethylcyclopropyl}-19-methoxy-5,8-dioxo-1,2,3,3a,5,6,7,8,11,12,20,21,22,23,24,24a-hexadeca hydro-10H-9,12-methanocyclopenta[18,19] [1,10,3,6]dioxadiazacyclononadecino[11,12-b] quinoline-10-carboxamide] was tested, and the Ki [1] was 59 nM and the Ki [2, 3] was 2.5 nM.

`C=C[C@@H]1C[C@]1(NC(=O)[C@@H]1C[C@@H]2CN1C(=O)[C@H](C1(C)CCCCC1)NC(=O)O[C@@H]1C[C@H]1CCCCCc1c(nc3ccccc3c1OC1CCN(C(=O)OC(C)(C)C)CC1)O2)C(=O)NS(=O)(=O)C1(C)CC1` [Example 267, tert-butyl 4-{[(1aR,5S,8S,10R,22aR)-8-{[(1R,2S)-2-ethenyl-1-{[(1-methylcyclopropyl)sulfonyl]carbamoyl}cyclopropyl]carbamoyl}-5-(1-methylcyclohexyl)-3,6-dioxo-1,1a,3,4,5,6,9,10,18,19,20,21,22,22a-tetradecahydro-8H-7,10-methanocyclopropa[18,19][1,10,3,6]dioxadiazacyclononadecino[11,12-b]quinolin-17-yl]oxy}piperidine-1-carboxylate] was tested, and the Ki [1] was 56 nM, the Ki [2, 4] was 0.114 nM and the Ki [2, 5] was 4.6 nM.

Work on `C=C[C@@H]1C[C@]1(NC(=O)[C@@H]1C[C@@H]2CN1C(=O)[C@H](C(C)(C)C)NC(=O)O[C@@H]1C[C@H]1CCCCCc1c(nc3ccccc3c1OCCc1cccnc1)O2)C(=O)NS(=O)(=O)C1(C)CC1` [Example 218, (1aR,5S,8S,10R,22aR)-5-tert-butyl-N-[(1R,2S)-2-ethenyl-1-{[(1-methylcyclopropyl)sulfonyl]carbamoyl}cyclopropyl]-3,6-dioxo-17-[2-(pyridin-3-yl)ethoxy]-1,1a,3,4,5,6,9,10,18,19,20,21,22,22a-tetradecahydro-8H-7,10-methanocyclopropa[18,19][1,10,3,6] dioxadiazacyclononadecino[11,12-b]quinoline-8-carboxamide] yielded a Ki [1] of 2.6 nM and a Ki [2, 3] of 0.035 nM.

For `C=C[C@@H]1C[C@]1(NC(=O)[C@@H]1C[C@@H]2CN1C(=O)[C@H](C(C)(C)C)NC(=O)O[C@@H]1CCC[C@H]1CC/C=C/Cc1c(nc3ccccc3c1OCCCOCCOC)O2)C(=O)NS(=O)(=O)C1(C)CC1` [Example 56, (3aR,7S,10S,12R,21E,24aS)-7-tert-butyl-N-[(1R,2S)-2-ethenyl-1-{[(1-methylcyclopropyl)sulfonyl]carbamoyl}cyclopropyl]-19-[3-(2-methoxyethoxy)propoxy]-5,8-dioxo-1,2,3,3a,5,6,7,8,11,12,20,23,24,24a-tetradecahydro-10H-9,12-methanocyclopenta[18,19][1,10,3,6]dioxadiazacyclononadecino[11,12-b] quinoline-10-carboxamide], the Ki [1] was 0.95 nM and the Ki [2, 3] was 0.09 nM.

Work on `C=C[C@@H]1C[C@]1(NC(=O)[C@@H]1C[C@@H]2CN1C(=O)[C@H](C(C)(C)C)NC(=O)O[C@@H]1CCC[C@H]1CCCCCc1c(nc3ccccc3c1OCCN1CCOCC1)O2)C(=O)NS(=O)(=O)N1CCC1` [Example 107, (3aR,7S,10S,12R,24aR)-N-{(1R,2S)-1-[(azetidin-1-ylsulfonyl)carbamoyl]-2-ethenylcyclopropyl}-7-tert-butyl-19-[2-(morpholin-4-yl)ethoxy]-5,8-dioxo-1,2,3,3a,5,6,7,8,11,12,20,21,22,23,24,24a-hexadecahydro-10H-9,12-methanycyclopenta [18,19][1,10,3,6]dioxadiazacyclo nonadecino[11,12-b]quinoline-10-carboxamide] yielded a Ki [1] of 23 nM and a Ki [2, 3] of 0.74 nM.

Work on `C=C[C@@H]1C[C@]1(NC(=O)[C@@H]1C[C@@H]2CN1C(=O)[C@H](C(C)(C)C)NC(=O)O[C@@H]1C[C@H]1CCCCCc1c(nc3ccccc3c1OC1CC3CCC(C1)N3C(=O)OC(C)(C)C)O2)C(=O)NS(=O)(=O)C1(C)CC1` (single isomer, unassigned) [Example 273] yielded a Ki [1] of 68 nM, a Ki [2, 4] of 0.1 nM and a Ki [2, 5] of 1.85 nM.

`C=C[C@@H]1C[C@]1(NC(=O)[C@@H]1C[C@@H]2CN1C(=O)[C@H](C(C)(C)C)NC(=O)O[C@@H]1C[C@H]1CCCCCc1c(nc3ccccc3c1OCCCN1CC3(CCC3)C1)O2)C(=O)NS(=O)(=O)C1(C)CC1` [Example 154, (1aR,5S,8S,10R,22aR)-17-[3-(2-azaspiro[3.3]hept-2-yl)propoxy]-5-tert-butyl-N-[(1R,2S)-2-ethenyl-1-{[(1-methylcyclopropyl)sulfonyl]carbamoyl}cyclopropyl]-3,6-dioxo-1,1a,3,4,5,6,9,10,18,19,20, 21,22,22a-tetradecahydro-8H-7,10-methanocyclopropa[18,19] [1,10,3,6]dioxadiazacyclononadecino [11,12-b]quinoline-8-carboxamide] was tested, and the Ki [1] was 1.5 nM and the Ki [2, 3] was 0.11 nM.

With `C=C[C@@H]1C[C@]1(NC(=O)[C@@H]1C[C@@H]2CN1C(=O)[C@H](C(C)(C)C)NC(=O)O[C@@H]1C[C@H]1CCCCCc1c(nc3ccccc3c1OC1CCN(C)CC1)O2)C(=O)NS(=O)(=O)C1(C)CC1` [Example 210, (1aR,5S,8S,10R,22aR)-5-tert-butyl-N-[(1R,2S)-2-ethenyl-1-{[(1-methylcyclopropyl)sulfonyl]carbamoyl}cyclopropyl]-17-[(1-methylpiperidin-4-yl)oxy]-3,6-dioxo-1,1a,3,4,5,6,9,10,18,19,20,21,22,22a-tetradecahydro-8H-7,10-methanocyclopropa[18,19][1,10,3,6]dioxadiazacyclononadecino[11,12-b]quinoline-8-carboxamide] the Ki [1] was 0.29 nM and the Ki [2, 3] was 0.046 nM.

Work on `C=C[C@@H]1C[C@]1(NC(=O)[C@@H]1C[C@@H]2CN1C(=O)[C@H](C(C)(C)C)NC(=O)O[C@@H]1C[C@H]1CCCCCc1c(nc3ccccc3c1OC1C3COCC1CN(CC1CC1)C3)O2)C(=O)NS(=O)(=O)C1(C)CC1` (stereo partly drawn) [Example 256, 9-{[(1aR,5S,8S,10R,22aR)-5-tert-butyl-8-{[(1R,2S)-2-ethenyl-1-{[(1-methylcyclopropyl)sulfonyl]carbamoyl}cyclopropyl]carbamoyl}-3,6-dioxo-1,1a,3,4,5,6,9,10,18,19,20,21,22,22a-tetradecahydro-8H-7,10-methanocyclopropa[18,19][1,10,3,6]dioxadiazacyclononadecino[11,12-b]quinolin-17-yl]oxy}-7-(cyclopropylmethyl)-3-oxa-7-azoniabicyclo[3.3.1]nonane formate] yielded a Ki [1] of 5.45 nM, a Ki [2, 4] of 0.021 nM and a Ki [2, 5] of 0.122 nM.
